Where two headings read alike, the source gives them in different places.
Experiments:
[1] = biological target: T1, human somatostatin receptor subtype 5 (Homo sapiens, UniProt P35346); assay: cAMP assay for SST5R (inhibition of cAMP in CHO-K1 cells); assay type: cell-based; conditions: for EC50: inhibition of cAMP via human SST5 receptor, read-out: SST5 potency; for Fold selectivity for SST5 vs SST2: class symbols, SST5 receptor over SST2 receptor
T1 construct: expressed in transfected cells
How it was run: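 CHO-K1 cells stably expressing human SSTR5 were treated 20 min at 37 °C with compounds plus 1.6 μM NKH477 in HBSS, 0.5 mM HEPES pH 7.4, 0.1% BSA, 0.2 mM IBMX. Lysate cAMP measured by HTRF against a standard curve; EC50 from cAMP-versus-concentration plots.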

[2] = biological target: T2, human somatostatin receptor subtype 2 (Homo sapiens, UniProt P30874); assay: cAMP assay for SST2R (inhibition of cAMP in CHO-K1 cells); assay type: cell-based; conditions: Table B; inhibition of cAMP via human SST2 receptor; read-out: SST2 potency
T2 construct: expressed in transfected cells
T2 sequence (P30874 whole entry): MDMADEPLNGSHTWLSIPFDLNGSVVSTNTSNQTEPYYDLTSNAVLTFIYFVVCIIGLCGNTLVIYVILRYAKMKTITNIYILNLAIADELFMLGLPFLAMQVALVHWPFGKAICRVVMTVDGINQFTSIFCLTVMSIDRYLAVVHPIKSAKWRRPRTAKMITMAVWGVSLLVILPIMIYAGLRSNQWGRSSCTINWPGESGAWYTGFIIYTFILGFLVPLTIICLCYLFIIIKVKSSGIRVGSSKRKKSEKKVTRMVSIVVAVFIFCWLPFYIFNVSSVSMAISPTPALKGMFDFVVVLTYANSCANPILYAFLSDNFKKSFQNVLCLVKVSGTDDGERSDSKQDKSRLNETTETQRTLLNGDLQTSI
Excerpt: General overview: All five SSTR subtypes are Gi coupled G-protein coupled receptors (GPCRs) that lead to decreases in intracellular cyclic AMP (cAMP) when activated by an agonist. Therefore, measurement of intracellular cAMP levels can be used to assess whether compounds of the invention are agonists of SSTR subtypes (John Kelly, Troy Stevens, W. Joseph Thompson, and Roland Seifert, Current Protocols in Pharmacology, 2005, 2.2.1-2.2). One example of an intracellular cAMP assay is described below.
cAMP Assay Protocol for SST2R:
Four days prior to the assay, 5,000 Chinese hamster ovary cells (CHO-K1, ATCC #CCL-61) stably expressing the human somatostatin receptor subtype 2 are plated in each well of a 96-well tissue culture-treated plate in Ham's F12 growth media (ThermoFisher #10-080-CM) supplemented with 10% donor bovine serum (Gemini Bio-Products #100-506), 100 U/mL penicillin; 100 μg/mL streptomycin; 2 mM L-glutamine (Gemini Bio-Products #400-110) and 0.2 mg/mL hygromycin B (GoldBio #31282-04-9). The cells are cultured at 37° C., 5% CO2 and 95% humidity. On the day of the assay, the media is aspirated and the cells are treated with 50 μL of 1.6 μM NKH477 (Sigma #N3290) plus various dilutions of compounds of the invention in assay buffer [1× Hank's Balanced Salt Solution (ThermoFisher #SH3058802), 0.5 mM HEPES pH 7.4, 0.1% bovine serum albumin, 0.2 mM 3-Isobutyl-1-methylxanthine (IBMX, VWR #200002-790)]. The cells are incubated for 20 minutes at 37° C. […] The cells are treated with 50 μL of lysis buffer (HRTF cAMP kit, Cisbio). The lysate is transferred to 384-well plates and cAMP detection and visualization antibodies are added and incubated for 1-24 hours at room temperature. The time-resolved fluorescent signal is read with a Tecan M1000Pro multiplate reader. The intracellular cAMP concentrations are calculated by regression to a standard curve and are plotted vs. the concentration of the compounds of the invention and the EC50 of the compounds are calculated using standard methods. All data manipulations are in GraphPad Prism v6 or v7.

T1 sequence (P35346 whole entry): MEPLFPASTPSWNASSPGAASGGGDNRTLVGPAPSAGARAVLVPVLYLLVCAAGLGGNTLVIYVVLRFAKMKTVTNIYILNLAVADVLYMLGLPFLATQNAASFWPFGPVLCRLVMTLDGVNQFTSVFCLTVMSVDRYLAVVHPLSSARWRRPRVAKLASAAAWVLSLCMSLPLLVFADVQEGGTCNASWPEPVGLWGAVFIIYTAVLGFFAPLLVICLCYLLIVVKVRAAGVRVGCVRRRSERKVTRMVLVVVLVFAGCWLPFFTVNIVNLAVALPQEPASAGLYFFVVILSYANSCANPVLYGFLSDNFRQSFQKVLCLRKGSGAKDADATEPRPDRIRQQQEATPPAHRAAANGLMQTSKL

Compound	EC50 ([1]; Table A)	Fold selectivity for SST5 vs SST2 ([1]; Table B)	EC50 ([1]; Table B)	EC50 [2]
CC(C)CNC(=O)c1cnc(C#N)c(-c2cc(F)cc(F)c2)c1N1CC[C@](C)(N)C1 [1-85, 4-[(3S)-3-amino-3-methylpyrrolidin-1-yl]-6-cyano-5-(3,5-difluorophenyl)-N-(2-methylpropyl)pyridine-3-carboxamide]	< 0.01 µM	+++ (+++=>500)	< 0.01 µM	0.1 to 1 µM
COc1ncc(C(=O)NC2CC(F)(F)C2)c(N2CC[C@H](N)C2)c1-c1cc(F)cc(Cl)c1 [1-285, 4-[(3S)-3-aminopyrrolidin-1-yl]-5-(3-chloro-5-fluorophenyl)-N-(3,3-difluorocyclobutyl)-6-methoxypyridine-3-carboxamide]	< 0.01 µM	+++ (+++=>500)	< 0.01 µM	0.1 to 1 µM
Cc1cc(F)cc(-c2cncc(C(=O)NC3CCc4ccccc43)c2N2CC[C@](C)(N)C2)c1 (stereo partly drawn) [1-17, 4-[(3S)-3-amino-3-methylpyrrolidin-1-yl]-N-(2,3-dihydro-1H-inden-1-yl)-5-(3-fluoro-5-methylphenyl)pyridine-3-carboxamide]	< 0.01 µM	++ (++=100 to 499)	< 0.01 µM	0.1 to 1 µM
Cc1cc(C)cc(-c2cncc(C(=O)NC3CCCC(C)(C)C3)c2N2CC[C@](C)(N)C2)c1 (stereo partly drawn) [1-11, 4-[(3S)-3-amino-3-methylpyrrolidin-1-yl]-N-(3,3-dimethylcyclohexyl)-5-(3,5-dimethylphenyl)pyridine-3-carboxamide]	< 0.01 µM	+++ (+++=>500)	< 0.01 µM	> 1 µM
C[C@H](NC(=O)c1cnc(OCC2CC2)c(-c2cc(F)cc(F)c2)c1N1CC[C@](C)(N)C1)C1CC1 [1-178, 4-[(3S)-3-amino-3-methylpyrrolidin-1-yl]-N-[(1S)-1-cyclopropylethyl]-6-(cyclopropylmethoxy)-5-(3,5-difluorophenyl)pyridine-3-carboxamide]	< 0.01 µM	+++ (+++=>500)	< 0.01 µM	0.01 to 0.1 µM
C[C@H](NC(=O)c1cnc(C(F)(F)F)c(-c2cc(F)cc(Cl)c2)c1N1CC[C@H](N)C1)C1CC1 [1-198, 4-[(3S)-3-aminopyrrolidin-1-yl]-5-(3-chloro-5-fluorophenyl)-N-[(1S)-1-cyclopropylethyl]-6-(trifluoromethyl)pyridine-3-carboxamide]	< 0.01 µM	++ (++=100 to 499)	< 0.01 µM	0.01 to 0.1 µM
COc1cc(-c2c(C(F)(F)F)ncc(C(=O)N[C@@H](C)C3CC3)c2N2CC[C@](C)(N)C2)ccn1 [1-208, 4-[(3S)-3-amino-3-methylpyrrolidin-1-yl]-N-[(1S)-1-cyclopropylethyl]-2′-methoxy-2-(trifluoromethyl)-[3,4′-bipyridine]-5-carboxamide]	< 0.01 µM	+++ (+++=>500)	< 0.01 µM	0.1 to 1 µM
N#Cc1ncc(C(=O)NC2CCCCCC2)c(N2CC[C@H](N)C2)c1-c1cc(F)cc(F)c1 [1-73, 4-[(3S)-3-aminopyrrolidin-1-yl]-6-cyano-N-cycloheptyl-5-(3,5-difluorophenyl)pyridine-3-carboxamide]	< 0.01 µM	+++ (+++=>500)	< 0.01 µM	> 1 µM
N#Cc1ncc(C(=O)NCCCc2ccccc2)c(N2CC[C@H](N)C2)c1-c1cc(F)cc(F)c1 [1-110, 4-[(3S)-3-aminopyrrolidin-1-yl]-6-cyano-5-(3,5-difluorophenyl)-N-(3-phenylpropyl)pyridine-3-carboxamide]	< 0.01 µM	+++ (+++=>500)	< 0.01 µM	> 1 µM
Cc1ncc(C(=O)N[C@@H](C)C2CC2)c(N2CC[C@](C)(N)C2)c1-c1ccnc(C(F)(F)F)c1 [1-159, 4-[(3S)-3-amino-3-methylpyrrolidin-1-yl]-N-[(1S)-1-cyclopropylethyl]-2-methyl-2′-(trifluoromethyl)-[3,4′-bipyridine]-5-carboxamide]	< 0.01 µM	+++ (+++=>500)	< 0.01 µM	> 1 µM
Cc1ncc(C(=O)N[C@@H](C)C(F)(F)F)c(N2CC[C@H](N)C2)c1-c1cccc(OC(F)F)c1 [1-232, 4-[(3S)-3-aminopyrrolidin-1-yl]-5-[3-(difluoromethoxy)phenyl]-6-methyl-N-[(2S)-1,1,1-trifluoropropan-2-yl]pyridine-3-carboxamide]	< 0.01 µM	+++ (+++=>500)	< 0.01 µM	> 1 µM
Cc1ncc(C(=O)N[C@@H](C)C2CC2)c(N2CC[C@](C)(N)C2)c1-c1cccc(F)c1 [1-124, 4-[(3S)-3-amino-3-methylpyrrolidin-1-yl]-N-[(1S)-1-cyclopropylethyl]-5-(3-fluorophenyl)-6-methylpyridine-3-carboxamide]	< 0.01 µM	+++ (+++=>500)	< 0.01 µM	0.1 to 1 µM
Cc1cccc2[nH]c(-c3cncc(C(=O)N4CCCC4C(C)C)c3N3CC[C@](C)(N)C3)nc12 (stereo partly drawn) [2-36, (3S)-3-methyl-1-[3-(4-methyl-1H-1,3-benzodiazol-2-yl)-5-[2-(propan-2-yl)pyrrolidine-1-carbonyl]pyridin-4-yl]pyrrolidin-3-amine]	< 0.01 µM	+++ (+++=>500)	< 0.01 µM	0.1 to 1 µM
C[C@H](NC(=O)c1cnc(C#N)c(-c2ccnc(C(F)(F)F)c2)c1N1CC[C@](C)(N)C1)C1CC1 [1-129, 4-[(3S)-3-amino-3-methylpyrrolidin-1-yl]-2-cyano-N-[(1S)-1-cyclopropylethyl]-2′-(trifluoromethyl)-[3,4′-bipyridine]-5-carboxamide]	< 0.01 µM	+++ (+++=>500)	< 0.01 µM	0.1 to 1 µM
COc1ncc(C(=O)NC23CC(F)(C2)C3)c(N2CC[C@H](N)C2)c1-c1cc(F)cc(F)c1 [1-196, 4-[(3S)-3-aminopyrrolidin-1-yl]-5-(3,5-difluorophenyl)-N-{3-fluorobicyclo[1.1.1]pentan-1-yl}-6-methoxypyridine-3-carboxamide]	< 0.01 µM	+++ (+++=>500)	< 0.01 µM	> 1 µM
COc1ncc(C(=O)NCc2ccon2)c(N2CC[C@](C)(N)C2)c1-c1cc(F)cc(OC(F)F)c1 [1-239, 4-[(3S)-3-amino-3-methylpyrrolidin-1-yl]-5-[3-(difluoromethoxy)-5-fluorophenyl]-6-methoxy-N-[(1,2-oxazol-3-yl)methyl]pyridine-3-carboxamide]	< 0.01 µM	+++ (+++=>500)	< 0.01 µM	> 1 µM
C[C@]1(N)CCN(c2c(C(=O)Nc3ccccc3F)cncc2-c2ccc(F)c(C#N)c2)C1 [1-4, 4-[(3S)-3-amino-3-methylpyrrolidin-1-yl]-5-(3-cyano-4-fluorophenyl)-N-(2-fluorophenyl)pyridine-3-carboxamide]	< 0.01 µM	++ (++=100 to 499)	< 0.01 µM	0.1 to 1 µM
Cc1cc(F)cc(-c2cncc(C(=O)NC3CCC(F)(F)CC3)c2N2CC[C@](C)(N)C2)c1 [1-13, 4-[(3S)-3-amino-3-methylpyrrolidin-1-yl]-N-(4,4-difluorocyclohexyl)-5-(3-fluoro-5-methylphenyl)pyridine-3-carboxamide]	< 0.01 µM	+++ (+++=>500)	< 0.01 µM	0.1 to 1 µM
C[C@]1(N)CCN(c2c(C(=O)NC34CC(C3)C4)cnc(C#N)c2-c2cc(F)cc(F)c2)C1 [1-49, 4-[(3S)-3-amino-3-methylpyrrolidin-1-yl]-N-{bicyclo[1.1.1]pentan-1-yl}-6-cyano-5-(3,5-difluorophenyl)pyridine-3-carboxamide]	< 0.01 µM	+++ (+++=>500)	< 0.01 µM	0.1 to 1 µM
